According to patent US20030119067A1, “PYK2 related products and methods” (Sugen, Inc., priority 1996, published 2003):
Read-outs that look alike come from different tables or passages of the source.

Columns and labels:
PYK-2 = experiment: Tyrosine phosphorylation of PYK-2 in NIH3T3 cells overexpressing PYK-2; type: cell-based; conditions: NIH3T3 cells overexpressing PYK-2 / PYK-2-HA; TPA 6 μM, 15 min, 37° C.
Text: The PYK-2 cDNA cloned in pLSV was cotransfected with pSV2neo into PC12 cells and NIH3T3 in order to establish stable cell lines. G418 resistant colonies were screened by immunoprecipitating and immunoblotting.
NIH3T3 cell lines were established that overexpress the PYK-2 and the PYK-2-HA protein. […] The level of phosphorylation is not so high.

PYK2 = experiment: Tyrosine phosphorylation of PYK2 in PC12 cells (immunoprecipitation, anti-phosphotyrosine immunoblot); type: cell-based, rat; conditions: for tyrosine phosphorylation of PYK2: quiescent PC12 cells, carbachol 1 mM, KCl 75 mM, A23187 6 μM 15 min, bradykinin 1 μM, PMA 1.6 μM
Shc = experiment: Tyrosine phosphorylation of Shc in PC12 cells; type: cell-based, rat; conditions: for tyrosine phosphorylation of Shc induced by agonist: DMPP 100 μM, muscarine 1 mM, NGF 100 ng/ml
Method: Tyrosine phosphorylation of Shc in response to bradykinin, carbachol, PMA and other stimuli was also measured. Quiescent PC12 cells were stimulated for 5 min at 37° C. with bradykinin (1 μM), carbachol (1 mM), KCl (75 mM), PMA (1.6 μM), NGF(100 ng/ml), or left unstimulated (−). The cells were also stimulated with carbachol (1 mM) or potassium chloride (75 mM) in the presence of 3 mM EGTA. Stimulations with DMPP (100 μM) or muscarine (1 mM) were preformed under the same conditions. […] The Shc proteins were immunoprecipitated with anti-Shc antibodies, the immunoprecipitates were resolved by SDS-PAGE (8%), transferred to nitrocellulose and immunoblotted with anti-phosphotyrosine antibodies.

Kv1.2 channel [1] = experiment: Kv1.2 currents in Xenopus oocytes (two microelectrode voltage clamp); type: cell-based, Xenopus laevis
Method: In vitro capped RNA transcripts of Kv1.2, PYK2 and PKN were synthesized from linearized plasmids DNA templates utilizing the […] mMACHINE kit (Ambion), following the supplier's protocols. The products of the transcription reaction (cRNAs) were diluted in RNAse-free water and stored at −70° C. Expression of the RNAs was done by injection of 50nl of RNA into defolliculated stage V and VI oocytes from Xenopus laevis (Iverson et al., J. Neurosc. 10, 2903-2916, 1990). The injected oocytes were incubated for 2-3 days at 20° C. in L15 solution (1:2 dilution of Gibco's Leibovitz L15 medum in H20, with 50 U/ml nystatin, 0.1 mg/ml gentamycin, 30 mM HEPES buffer, pH 7.3-7.4, filtered through a 0.45 mm membrane) Electrophysiological Recording and analysis. Ionic currents were recorded with a two microelectrode voltage-clamp as described (Iverson et al., supra). The current were low-pass filtered KHz using an 8-pole Bessel filter and stored in a 80286 microcomputer using the pclamp acquisition system (Axon Instruments). The data was analyzed with the clamp fit pro-rams of the pCIamp system (Axon Instruments). All recording were performed at room temperature ([…]). The recording chamber was continually perfused with recording solution. To avoid contamination of the oocyte by Ca+^2-activated Cl^− currents low Cl^− recording solution was used (96 mM Na+, glutamate, 2 mM K^+ glutamate, 0.5 mM CaCl2, 5 mM MgCl2, 5 mM HEPES buffer). The K+ currents were elicited in depolarizinc, steps from −100 to +40 mv in 10 mV increments every 15 seconds.
Kv1.2 currents from oocytes microinjected with either Kv1.2 mRNA, Kv1.2 and PYK2 mRNAs, or Kv1.2 and a kinase negative mutant of PYK2 mRNAs (PKN). Currents were elicited in response to depolarizing steps from −100 to +30 mV increments from a holding potential of −110 mV. Representative traces of Kv1.2 channels before and after bath application of 100 nM PMA at the annotated time (8 and 20 minutes) in the same cell.
Suppression of Kv1.2 currents in response to PMA is blocked by a kinase negative PYK2 mutant (PKN). Inhibition of Kv1.2 currents in an oocyte microinjected with Kv1.2 mRNA before and 25 minutes after treatment with PMA at 50 nM or 100 nM concentration. Recordings from an oocyte expression Kv1.2 and PYK2 or Kv1.2 and a kinase negative mutant of PYK2 under the same conditions as described above. The same protocol was utilized in both experiments.
We asked whether stimulation of PYK2 can suppress Kv1.2 currents. […] Stage V oocytes were microinjected either with Kv1.2 transcripts or with Kv1.2 together with PYK2 or PKN mRNAs. […] The expression of Kv1.2, PYK2 and PKN in the frog oocytes was confirmed by immunoblot analysis with anti-HA or anti-PYK2 antibodies.

Kv1.2 potassium channel = experiment: Tyrosine phosphorylation of Kv1.2 in transfected 293 cells; type: cell-based, human; conditions: 293 cells co-expressing Kv1.2-HA and PYK2; PMA 1.6 μM, calcium ionophore 6 μM
Kv1.2 channel [2] = conditions: oocytes, after 20 min incubation; as previously shown (Huang et al.); cited from earlier work
PYK2 and Fak = experiment: Tyrosine phosphorylation of PYK2 and Fak in transfected 293 cells; type: cell-based, human; conditions: PMA 1.6 μM, calcium ionophore 6 μM
Method: We examined the possibility whether PYK2 can tyrosine phosphorylate the Kv1.2 channel and regulate its function. In order to test this possibility, we expressed in 293 cells the Kv1.2 protein, Kv1.2 together with PYK2, and as a control Kv1.2 with a kinase negative PYK2 mutant (PKN) or with the protein tyrosine kinase Fak. The cells were grown for 24 hours in medium containing 0.2% serum and then stimulated with PMA(1.6 μM), calcium ionophore (6 μM), or left unstimulated.
Immunoblotting analysis with phosphotyrosine anti-bodies following immunoprecipitation of PYK2, PKN and Fak by specific antibodies. […] The level of expression of the kinase negative mutant of PYK2 (PKN) was similar to the expression of wild type PYK2 or FAK. […] We next analyzed the tyrosine phosphorylation of Kv1.2 channel in each cell line.
Embryonic human kidney 293 cells were transiently transfected with different combinations of mammalian expression vectors which direct the synthesis of Kv1.2-HA, PYK2, a kinase negative PYK2 (PKN) or the protein tyrosine kinase Fak. […]
Tyrosine phosphorylation of each protein was analysed following immunoprecipitation and immunoblotting with anti-phosphotyrosine antibodies. The expression of each protein was determined by immunoblot analysis of total cell lysates from each transfection with anti-PYK2, anti-HA or anti-Fak antibodies.

[3] = PC12 cells, 37° C., TPA 1.6 μM 15 min, bradykinin 1 μM 1 min, A23187 2 μM 15 min
[4] = PC12 cells, pertussis toxin 100 ng/ml for 20 hours

Molecule: EGF: growth factor used to stimulate NIH3T3 cells
- tyrosine phosphorylation of PYK-2 (PYK-2): undergoes tyrosine phosphorylation

Molecule: Cholera toxin
- effect on the TPA / bradykinin PYK-2 phosphorylation response in combination (PYK2): gave higher signal in combination with TPA and bradykinin
- tyrosine phosphorylation of PYK-2 in response to the stimulus alone (PYK2): didn't cause phosphorylation of PYK-2 alone

Molecule: C[C@@H]1O[C@H](C[N+](C)(C)C)C[C@H]1O [muscarine]
- tyrosine phosphorylation of Shc induced by agonist (Shc): had no effect

Molecule: CCCCCCCCCCCCCC(=O)O[C@@H]1[C@@H](C)[C@@]2(O)[C@@H](C=C(CO)C[C@]3(O)C(=O)C(C)=C[C@@H]23)[C@@H]2C(C)(C)[C@]12OC(C)=O [PMA, phorbol 12-myristate 13-acetate]
- inhibition of outward current (Kv1.2 channel [1]; oocytes coexpressing Kv1.2 and PYK2, 8 min after 100 nM PMA): 95%
- inhibition of outward current (Kv1.2 channel [1]; oocytes expressing Kv1.2 alone, 8 min after 100 nM PMA): 25%
- effect on Kv1.2 currents (Kv1.2 channel [1]; oocytes treated with PMA): caused inhibition of Kv1.2 currents
- effect on kinetics and voltage dependence of remaining Kv1.2 currents (Kv1.2 channel [1]; oocytes, absence or presence of PYK2 expression): did not result in changes in both the kinetics or voltage dependence of the remaining currents
- tyrosine phosphorylation of Kv1.2 (Kv1.2 potassium channel): enhanced
- agonist-induced PYK2 tyrosine phosphorylation after prolonged PMA treatment (PKC down-regulation) (PYK2; PC12 cells pretreated with 100 nM PMA for 12 h): completely abolished the effect of PMA
- tyrosine phosphorylation of PYK-2 in response to the stimulus alone (PYK2; [3]): undergoes tyrosine phosphorylation
- increase in the phosphorylation state of PYK2 relative to unstimulated cells (PYK2; PC12 cells, LPA 2.5 mM, bradykinin 1 mM 3 min, PMA 1 mM 10 min, 37° C.): 12 fold
- tyrosine phosphorylation of PYK2 (PYK2; 37° C.): induced tyrosine phosphorylation of PYK2
- inhibition of Kv1.2 currents (Kv1.2 channel [2]): 80-90%
- tyrosine phosphorylation of PYK2 and Fak (PYK2 and Fak): induced tyrosine phosphorylation

Molecule: CN1[C@@H]2CC[C@H]1C[C@@H](OC(=O)C(CO)c1ccccc1)C2 (some centres unmarked) [atropine]
- effect of antagonist on carbachol-induced tyrosine phosphorylation of Shc (Shc): had no effect

Molecule: O=C(O)CN(CCOCCOCCN(CC(=O)O)CC(=O)O)CC(=O)O [EGTA, ethyleneglycol-bis (β-aminoethyl ether)-N,N,N′N′-tetraacetic acid]
- effect on carbachol-induced tyrosine phosphorylation of PYK2 (PYK2; PC12 cells, EGTA 3 mM (elimination of extracellular calcium)): completely blocked agonist induced tyrosine phosphorylation of PYK2
- effect on LPA-induced PYK2 phosphorylation (PYK2; PC12 cells, medium containing 3 mM EGTA): did not affect

Molecule: PDGF
- tyrosine phosphorylation of PYK-2 (PYK-2): undergoes tyrosine phosphorylation

Molecule: pertussis toxin
- effect on the TPA / bradykinin PYK-2 phosphorylation response in combination (PYK2): induced the response of TPA and bradykinin
- tyrosine phosphorylation of PYK-2 in response to the stimulus alone (PYK2; [3]): didn't cause any response alone
- effect of pretreatment on LPA-induced tyrosine phosphorylation of PYK2 (PYK2; [4]): significantly inhibited
- effect of pretreatment on bradykinin or PMA induced activation of PYK2 (PYK2; [4]): not affected

Molecule: NGF: nerve growth factor
- tyrosine phosphorylation of Shc induced by agonist (Shc): induced persistent stimulation of Shc phosphorylation
- duration of stimulation of Shc phosphorylation after addition (Shc; NGF): five

Molecule: CNc1ccc2oc(C[C@H]3O[C@@]4(CC[C@H]3C)O[C@H]([C@H](C)C(=O)c3ccc[nH]3)[C@H](C)C[C@H]4C)nc2c1C(=O)O [calcium ionophore A23187]
- tyrosine phosphorylation of Kv1.2 (Kv1.2 potassium channel): enhanced
- tyrosine phosphorylation of PYK-2 in response to the stimulus alone (PYK2; [3]): undergoes tyrosine phosphorylation
- tyrosine phosphorylation of PYK2 (PYK2; 37° C.): phosphorylated on tyrosine residues
- tyrosine phosphorylation of PYK2 and Fak (PYK2 and Fak): induced a weaker response

Molecule: C[N+](C)(C)CCOC(N)=O [carbachol]
- time of maximum tyrosine phosphorylation of Shc (Shc; 1 mM carbachol time course): one
- dependence of agonist-induced tyrosine phosphorylation of Shc on extracellular calcium (Shc; 3 mM EGTA): dependent on the presence of extracellular calcium
- time after applying the agonist at which PYK2 became phosphorylated on tyrosine (PYK2; PC12 cells, carbachol): 5 s
- tyrosine phosphorylation of PYK2 (PYK2; 37° C.): induces strong, tyrosine phosphorylation of PYK2

Molecule: [Cl-].[K+] [KCl, potassium chloride]
- agonist-induced PYK2 tyrosine phosphorylation on omission of extracellular calcium (PYK2; PC12 cells, no extracellular calcium or EGTA present): completely abolished PYK2 tyrosine phosphorylation
- tyrosine phosphorylation of PYK2 (PYK2; 37° C.): induces rapid tyrosine phosphorylation of PYK2

Molecule: C[N+]1(C)CCN(c2ccccc2)CC1.[I-] [DMPP, 1,1-dimethyl-4-phenyl piperazinium iodide]
- tyrosine phosphorylation of Shc induced by agonist (Shc): induced phosphorylation of Shc

Molecule: aFGF: growth factor used to stimulate NIH3T3 cells
- tyrosine phosphorylation of PYK-2 (PYK-2): undergoes tyrosine phosphorylation

Molecule: CNC1(C)C2CCC(C2)C1(C)C (centres unmarked) [mecamylamine]
- effect of antagonist on carbachol-induced tyrosine phosphorylation of Shc (Shc): blocked the effect of carbachol
